From article PMC3983388 (Journal of Medicinal Chemistry, 2014)
Converted amounts (≈) assume the structure as drawn.

Legend:
[1] = in vivo, po; cited from earlier work
[2] = pH 6.8, aqueous solubility pH 6.8

Cc1ccnc(NC(c2ccc([N+](=O)[O-])cc2)c2ccc3cccnc3c2O)c1 (centres unmarked) [Compound 34]
solubility (physchem; [2]): 0.0741 µM (≈ 0.0286 µg/mL)

Cc1ccnc(NC(c2ccc([N+](=O)[O-])cc2)c2ccc3ccc(C)nc3c2O)c1 (centres unmarked) [Compound 35]
solubility (physchem; [2]): 0.0659 µM (≈ 0.0264 µg/mL)

COc1ccc(C(Nc2ccccn2)c2ccc3cccnc3c2O)cc1 (centres unmarked) [Compound 36]
solubility (physchem; [2]): 0.0053 µM (≈ 0.00189 µg/mL)

COc1ccc(C(Nc2ccccn2)c2ccc3ccc(C)nc3c2O)cc1 (centres unmarked) [Compound 37]
solubility (physchem; [2]): 0.0338 µM (≈ 0.0126 µg/mL)

Oc1c(CNc2ccccn2)ccc2cccnc12 [Compound 56, 7-(((Pyridin-2-yl)amino)methyl)quinolin-8-ol]
solubility (physchem; [2]): 0.111 µM (≈ 0.0279 µg/mL)

Oc1c(C(Nc2ccccn2)c2ccccc2)ccc2cccnc12 (centres unmarked) [Compound 57, 7-(Phenyl((pyridin-2-yl)amino)methyl)quinolin-8-ol]
solubility (physchem; pH 1, aqueous solubility pH 1.0): ~1200 µM (≈ 393 µg/mL) | solubility (physchem; [2]): 0.078 µM (≈ 0.0255 µg/mL)

Oc1c(I)cc(Cl)c2cccnc12 [Compound 58, 5-chloro-7-iodo-8-hydroxy-quinoline, reference compound]
solubility (physchem; [2]): < 0.001 µM | serum levels [1]: 13 to 25 µM

Oc1c(Cl)cc(Cl)c2cccnc12 [Compound 60, 5,7-dichloro-8-hydroxy-quinoline, reference compound]
solubility (physchem; [2]): 0.5 µM (≈ 0.107 µg/mL)

Cc1ccc2c(Cl)cc(Cl)c(O)c2n1 [Compound 61, 5,7-dichloro-2-methyl-8-hydroxy-quinoline]
solubility (physchem; [2]): 0.394 µM (≈ 0.0899 µg/mL)
